Measurements reported in patent US20250368872A1, “PROTEIN CROSSLINKING AGENT” (CANON KABUSHIKI KAISHA, priority 2023, published 2025).

System: silk fibroin powder
Test: Evaluation of adsorptivity of groups containing aromatic rings to proteins having a β-sheet structure
Type: binding
Conditions: for Adsorption rate to fibroin (%): 0.02 mM, 0.15 mL methanol solution on 10 mg silk fibroin powder, air-dried, 0.15 mL water, stirred 5 minutes, supernatant absorbance; for Adsorptivity: class of adsorption rate to fibroin
Method: After distillation of methanol by air-drying, 0.15 mL of water was added. After stirring for 5 minutes, the supernatant was collected. The concentration of groups containing aromatic rings in the collected supernatant liquid and the percentage of adsorption of groups containing aromatic rings to fibroin were calculated by absorbance measurement, and the adsorptivity of groups containing aromatic rings to proteins having a β-sheet structure was evaluated by the following criteria.
“Evaluation A” and “Evaluation B” indicate the level at which groups containing aromatic rings adsorb strongly to proteins having a β-sheet structure, and “Evaluation C” indicates the low adsorptivity of groups containing aromatic rings.
• A: 90% or more • B: 60% or more but less than 90% • C: Less than 60%

Row | Compound | Adsorption rate to fibroin (%) | Adsorptivity
1 | O=C(O)CCOc1ccccc1-c1nc2ccccc2s1 [Compound 4] | 71 | B (60% or more but less than 90%)
2 | Thioflavin T acid [reference compound] | 91 | A (90% or more)
3 | O=C(O)CCNc1ccc(-c2nc3ccccc3s2)cc1 [Compound 2] | 79 | B (60% or more but less than 90%)
